Values after ≈ are worked out from the molar mass of the structure shown. Like-named read-outs stand apart in the source and are kept apart here.
Key:
S. aureus ATCC29213 [1] = experiment: antibiotic susceptibility testing on the array microfluidic chip (redox indicator discoloration); assay type: cell-based, Staphylococcus aureus; conditions: 5 hours and 30 minutes
From the text: (§1) In the present experiment, the array microfluidic chip of the present disclosure is used to perform the antibiotic susceptibility testing on Escherichia coli ATCC25922 (“E. coli ATCC25922” hereafter) and Staphylococcus aureus ATCC29213 (“S. aureus ATCC29213” hereafter) to three antibiotics, namely Amikacin, Gentamicin and Vancomycin.
(§2) In the experiment, the dried powders of Amikacin, Gentamicin or Vancomycin are respectively placed in different reaction wells of the array microfluidic chip with different contents, and then the array microfluidic chip is sealed and keeps refrigerated. Next, redox indicators with proper amounts are respectively added to the bacteria-containing mediums including E. coli ATCC25922 or S. aureus ATCC29213, and the bacteria-containing mediums are transported to different reaction wells of different array microfluidic chips and then mixed with the antibiotic powders with different contents thereof so as to form the reaction solutions including different concentrations of antibiotics.
Next, the array microfluidic chips are placed in the incubator and cultured at 37° C., and the antibiotic susceptibilities of E. coli ATCC25922 and S. aureus ATCC29213 to Amikacin, Gentamicin and Vancomycin are further assessed based on the discoloration of the reaction solutions. […]

E. coli ATCC25922 [2] = conditions: cited from earlier work
E. coli ATCC25922 [3] = experiment: antibiotic susceptibility testing on the array microfluidic chip (redox indicator discoloration); assay type: cell-based, Escherichia coli; conditions: for MIC: Escherichia coli, read-out: minimum inhibitory concentration (MIC)
From the text: as §1, §2
Next, the array microfluidic chips are placed in the incubator and cultured at 37° C., and the antibiotic susceptibilities of E. coli ATCC25922 and S. aureus ATCC29213 to Amikacin, Gentamicin and Vancomycin are further assessed based on the discoloration of the reaction solutions. In detail, if E. coli ATCC25922 and S. aureus ATCC29213 can grow under the existence of a specific antibiotic with a particular concentration, the color of the reaction solution including the redox indicator will gradually change from blue to purple, and eventually to pink, and the discoloration can be observed on the array microfluidic chip directly. Therefore, the assessing time of the method of antibiotic susceptibility testing of the present disclosure can be greatly shortened.
Please refer to FIG. 10A, FIG. 10B, FIG. 10C and Table 2 simultaneously. […] Furthermore, in FIG. 10C, the far left one is the image of the independent well performed a negative control test, and it is noted that the testing result of the independent well is not shown in Table 2. […]

S. aureus ATCC29213 [4] = conditions: cited from earlier work

| Compound | MIC (S. aureus ATCC29213 [1]; Staphylococcus aureus, ATCC29213, 37° C., read-out: minimum inhibitory concentration) [µg/mL] | CLSI standard value MIC (E. coli ATCC25922 [2]) | MIC (E. coli ATCC25922 [3]; ATCC25922, array microfluidic chip, 37° C., 4 hours) [µg/mL] | CLSI standard value MIC (S. aureus ATCC29213 [4]) | minimum inhibitory concentration (S. aureus ATCC29213 [1]; 37° C.) [µg/mL] | minimum inhibitory concentration (MIC) (E. coli ATCC25922 [3]; array microfluidic chip, 37° C., 4 hours) [µg/mL] | MIC (E. coli ATCC25922 [3]; ATCC25922, 4 h) [µg/mL] |
| --- | --- | --- | --- | --- | --- | --- | --- |
| NCC[C@H](O)C(=O)N[C@@H]1C[C@H](N)[C@@H](O[C@H]2O[C@H](CN)[C@@H](O)[C@H](O)[C@H]2O)[C@H](O)[C@H]1O[C@H]1O[C@H](CO)[C@@H](O)[C@H](N)[C@H]1O [Amikacin] | 1 (≈ 1.71 µM) | 0.5˜4 μg/mL | 1 (≈ 1.71 µM) | 1˜4 μg/mL |  |  |  |
| Gentamicin |  | 0.251 µg/mL |  | 0.12˜1 μg/mL | 0.25 | 1 |  |
| CN[C@H](CC(C)C)C(=O)N[C@H]1C(=O)N[C@@H](CC(N)=O)C(=O)N[C@H]2C(=O)N[C@H]3C(=O)N[C@H](C(=O)N[C@H](C(=O)O)c4cc(O)cc(O)c4-c4cc3ccc4O)[C@H](O)c3ccc(c(Cl)c3)Oc3cc2cc(c3O[C@@H]2O[C@H](CO)[C@@H](O)[C@H](O)[C@H]2O[C@H]2C[C@](C)(N)[C@H](O)[C@H](C)O2)Oc2ccc(cc2Cl)[C@H]1O [Vancomycin] |  | R-resistance |  | 0.5˜2 μg/mL |  |  | > 16 |

Reference: patent US12263479B2, “Array microfluidic chip and method of antibiotic susceptibility testing” (MEDFLUID CO., LTD., priority 2021, dated 2025)
